In ChEMBL document CHEMBL3885881, “DrugMatrix”:

Organism: Rattus norvegicus
Experiment: DrugMatrix - Regimen: Daily Repeat
Assay type: toxicity, organism-based, Sprague-Dawley
Design: regimen Daily Repeat, gender Male, age 6-8 weeks
Conditions: in vivo, po, route oral GAVAGE, vehicle 100 % WATER; for ABSOLUTE BASOPHIL / ABSOLUTE EOSINOPHIL / ABSOLUTE LYMPHOCYTE / ABSOLUTE MONOCYTE / ABSOLUTE SEGMENTED NEUTROPHIL / BASOPHIL / EOSINOPHIL / ERYTHROCYTE COUNT / HEMATOCRIT / HEMOGLOBIN / LEUKOCYTE COUNT / LYMPHOCYTE / MEAN CORPUSCULAR HEMOGLOBIN / MEAN CORPUSCULAR HEMOGLOBIN CONCENTRATION / MEAN CORPUSCULAR VOLUME / MONOCYTE / NEUTROPHIL / NUCLEATED RED BLOOD CELLS / PLATELET COUNT: tissue Blood; for ALANINE AMINOTRANSFERASE / ALBUMIN / ALKALINE PHOSPHATASE / ASPARTATE AMINOTRANSFERASE / BLOOD UREA NITROGEN / CARBON DIOXIDE / CHLORIDE / CHOLESTEROL / CREATINE PHOSPHOKINASE / CREATININE / GLUCOSE / LACTATE DEHYDROGENASE / LIPASE / PHOSPHORUS / POTASSIUM / SODIUM / TOTAL BILIRUBIN / TOTAL PROTEIN / URIC ACID: tissue Plasma
[1] = 0 mg/kg, 72 h, dose level Control, time 3 day
[2] = 0 mg/kg, 120 h, dose level Control, time 5 day
[3] = 20 mg/kg, 72 h, dose level Low, time 3 day

SMILES: CN(C)CCC=C1c2ccccc2CCc2ccccc21 [AMITRIPTYLINE]
- ABSOLUTE BASOPHIL [1]: 0 CELLS/uL
- ABSOLUTE EOSINOPHIL [1]: 58.83 CELLS/uL
- ABSOLUTE LYMPHOCYTE [1]: 11823.5 CELLS/uL
- ABSOLUTE MONOCYTE [1]: 169 CELLS/uL
- ABSOLUTE SEGMENTED NEUTROPHIL [1]: 815.33 CELLS/uL
- BASOPHIL [1]: 0%
- EOSINOPHIL [1]: 0.5%
- ERYTHROCYTE COUNT [1]: 5.52 x10E6/uL
- HEMATOCRIT [1]: 35.77%
- HEMOGLOBIN [1]: 14.28 G/DL
- LEUKOCYTE COUNT [1]: 12.87 x10E3/uL
- LYMPHOCYTE [1]: 91.67%
- MEAN CORPUSCULAR HEMOGLOBIN [1]: 25.92 pg
- MEAN CORPUSCULAR HEMOGLOBIN CONCENTRATION [1]: 39.95 G/DL
- MEAN CORPUSCULAR VOLUME [1]: 64.85 fL
- MONOCYTE [1]: 1.33%
- NEUTROPHIL [1]: 6.5%
- NUCLEATED RED BLOOD CELLS [1]: 0 /100WBC
- PLATELET COUNT [1]: 1246.17 x10E3/uL
- ALANINE AMINOTRANSFERASE [1]: 66 u/L
- ALBUMIN [1]: 4.25 G/DL
- ALKALINE PHOSPHATASE [1]: 416 u/L
- ASPARTATE AMINOTRANSFERASE [1]: 106.17 u/L
- BLOOD UREA NITROGEN [1]: 12.67 mg/dL
- CARBON DIOXIDE [1]: 31.83 mmol/L
- CHLORIDE [1]: 102.5 MEQ/L
- CHOLESTEROL [1]: 69 mg/dL
- CREATINE PHOSPHOKINASE [1]: 601.83 u/L
- CREATININE [1]: 0.18 mg/dL
- GLUCOSE [1]: 154.5 mg/dL
- LACTATE DEHYDROGENASE [1]: 301.83 u/L
- LIPASE [1]: 11.17 u/L
- PHOSPHORUS [1]: 12.08 mg/dL
- POTASSIUM [1]: 6.12 MEQ/L
- SODIUM [1]: 145.2 MEQ/L
- TOTAL BILIRUBIN [1]: 0.17 mg/dL
- TOTAL PROTEIN [1]: 6.1 G/DL
- URIC ACID [1]: 1.57 mg/dL
- ABSOLUTE BASOPHIL [2]: 0 CELLS/uL
- ABSOLUTE EOSINOPHIL [2]: 19.33 CELLS/uL
- ABSOLUTE LYMPHOCYTE [2]: 12577.83 CELLS/uL
- ABSOLUTE MONOCYTE [2]: 106.33 CELLS/uL
- ABSOLUTE SEGMENTED NEUTROPHIL [2]: 896.5 CELLS/uL
- BASOPHIL [2]: 0%
- EOSINOPHIL [2]: 0.17%
- ERYTHROCYTE COUNT [2]: 5.84 x10E6/uL
- HEMATOCRIT [2]: 36.88%
- HEMOGLOBIN [2]: 14.48 G/DL
- LEUKOCYTE COUNT [2]: 13.6 x10E3/uL
- LYMPHOCYTE [2]: 92.17%
- MEAN CORPUSCULAR HEMOGLOBIN [2]: 24.85 pg
- MEAN CORPUSCULAR HEMOGLOBIN CONCENTRATION [2]: 39.3 G/DL
- MEAN CORPUSCULAR VOLUME [2]: 63.23 fL
- MONOCYTE [2]: 0.83%
- NEUTROPHIL [2]: 6.83%
- NUCLEATED RED BLOOD CELLS [2]: 0 /100WBC
- PLATELET COUNT [2]: 1223.5 x10E3/uL
- ALANINE AMINOTRANSFERASE [2]: 55.33 u/L
- ALBUMIN [2]: 4.08 G/DL
- ALKALINE PHOSPHATASE [2]: 355.5 u/L
- ASPARTATE AMINOTRANSFERASE [2]: 87.67 u/L
- BLOOD UREA NITROGEN [2]: 15.33 mg/dL
- CARBON DIOXIDE [2]: 33.83 mmol/L
- CHLORIDE [2]: 99.67 MEQ/L
- CHOLESTEROL [2]: 72.17 mg/dL
- CREATINE PHOSPHOKINASE [2]: 268.33 u/L
- CREATININE [2]: 0.15 mg/dL
- GLUCOSE [2]: 152.5 mg/dL
- LACTATE DEHYDROGENASE [2]: 212.67 u/L
- LIPASE [2]: 10.83 u/L
- PHOSPHORUS [2]: 11.65 mg/dL
- POTASSIUM [2]: 6.73 MEQ/L
- SODIUM [2]: 142.43 MEQ/L
- TOTAL BILIRUBIN [2]: 0.23 mg/dL
- TOTAL PROTEIN [2]: 6.07 G/DL
- URIC ACID [2]: 1.7 mg/dL
- ABSOLUTE BASOPHIL [3]: 0 CELLS/uL
- ABSOLUTE EOSINOPHIL [3]: 43.67 CELLS/uL
- ABSOLUTE LYMPHOCYTE [3]: 12245.67 CELLS/uL
- ABSOLUTE MONOCYTE [3]: 111.33 CELLS/uL
- ABSOLUTE SEGMENTED NEUTROPHIL [3]: 1432.67 CELLS/uL
- BASOPHIL [3]: 0%
- EOSINOPHIL [3]: 0.33%
- ERYTHROCYTE COUNT [3]: 5.6 x10E6/uL
- HEMATOCRIT [3]: 36.3%
- HEMOGLOBIN [3]: 14.5 G/DL
- LEUKOCYTE COUNT [3]: 13.83 x10E3/uL
- LYMPHOCYTE [3]: 88.33%
- MEAN CORPUSCULAR HEMOGLOBIN [3]: 25.93 pg
- MEAN CORPUSCULAR HEMOGLOBIN CONCENTRATION [3]: 39.97 G/DL
- MEAN CORPUSCULAR VOLUME [3]: 64.87 fL
- MONOCYTE [3]: 0.67%
- NEUTROPHIL [3]: 10.67%
- NUCLEATED RED BLOOD CELLS [3]: 0 /100WBC
- PLATELET COUNT [3]: 1222 x10E3/uL
- ALANINE AMINOTRANSFERASE [3]: 53 u/L
- ALBUMIN [3]: 4.33 G/DL
- ALKALINE PHOSPHATASE [3]: 377.33 u/L
- ASPARTATE AMINOTRANSFERASE [3]: 92 u/L
- BLOOD UREA NITROGEN [3]: 14.67 mg/dL
- CARBON DIOXIDE [3]: 31.33 mmol/L
- CHLORIDE [3]: 103 MEQ/L
- CHOLESTEROL [3]: 67.33 mg/dL
- CREATINE PHOSPHOKINASE [3]: 466 u/L
- CREATININE [3]: 0.22 mg/dL
- GLUCOSE [3]: 137.33 mg/dL
- LACTATE DEHYDROGENASE [3]: 318.67 u/L
- LIPASE [3]: 12.67 u/L
- PHOSPHORUS [3]: 11.77 mg/dL
- POTASSIUM [3]: 6.47 MEQ/L
- SODIUM [3]: 145.83 MEQ/L
- TOTAL BILIRUBIN [3]: 0.2 mg/dL
- TOTAL PROTEIN [3]: 6.03 G/DL
- URIC ACID [3]: 1.5 mg/dL
